In article PMC5039751, “Profiling of core fucosylated N-glycans using a novel bacterial lectin that specifically recognizes α1,6 fucosylated chitobiose” (Scientific Reports, 2016):

Key:
[1] = target: T1, SL2-1 (Streptomyces rapamycinicus, UniProt A0ABR6LWE4); assay: lectin capture in Microcon-30 filter, UPLC-HILIC-FLR; type: binding; conditions: labelled compound (2-AB); mixture of four glycans, 4 pmol each, 20 μg SL2-1, 10 mM Tris-HCl pH 8.0, room temperature; proteinase K elution
T1 construct: gene BJY27_006859; monomer with three ~40-residue repeats
T1 sequence (A0ABR6LWE4 31-188): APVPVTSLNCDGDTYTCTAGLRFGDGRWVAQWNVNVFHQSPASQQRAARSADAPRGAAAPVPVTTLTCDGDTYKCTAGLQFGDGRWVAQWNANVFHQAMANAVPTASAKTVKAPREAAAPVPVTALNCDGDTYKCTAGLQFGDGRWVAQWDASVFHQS

[2] = target: T1, SL2-1; assay: isothermal titration calorimetry; type: binding; conditions: 20 mM sodium phosphate pH 7.4, 25 °C
Description: isothermal titration calorimetry on SL2-1

% of total loaded recovered from lectin-bound fraction [1] [%] | Compound | further results
95 | CC(=O)N[C@H]1[C@H](O[C@@H]([C@H](O)[C@H](CNc2ccccc2C(N)=O)NC(C)=O)[C@H](O)CO[C@@H]2O[C@@H](C)[C@@H](O)[C@@H](O)[C@@H]2O)O[C@H](CO)[C@@H](O[C@@H]2O[C@H](CO[C@H]3O[C@H](CO)[C@@H](O)[C@H](O)[C@@H]3O[C@@H]3O[C@H](CO)[C@@H](O[C@@H]4O[C@H](CO)[C@H](O)[C@H](O)[C@H]4O)[C@H](O)[C@H]3NC(C)=O)[C@@H](O)[C@H](O[C@H]3O[C@H](CO)[C@@H](O)[C@H](O)[C@@H]3O[C@@H]3O[C@H](CO)[C@@H](O[C@@H]4O[C@H](CO)[C@H](O)[C@H](O)[C@H]4O)[C@H](O)[C@H]3NC(C)=O)[C@@H]2O)[C@@H]1O [NA2F, 2-aminobenzamide (2-AB)-labeled asialo-, galactosylated biantennary N-glycan with core α1-6 fucose] | 
 | CC(=O)N[C@H]1[C@H](O[C@H]2[C@H](O)[C@@H](NC(C)=O)C(O)O[C@@H]2CO[C@@H]2O[C@@H](C)[C@@H](O)[C@@H](O)[C@@H]2O)O[C@H](CO)[C@@H](O)[C@@H]1O (stereo partly drawn) [N2F, α1-6 fucosylated chitobiose] | Kd ([2]; n = 2.01): 1.59 µM
 | CC(=O)N[C@H]1[C@H](O[C@H]2[C@H](O)[C@@H](NC(C)=O)C(O)O[C@@H]2CO[C@@H]2O[C@@H](C)[C@@H](O)[C@@H](O)[C@@H]2O)O[C@H](CO)[C@@H](O[C@@H]2O[C@H](CO[C@H]3O[C@H](CO)[C@@H](O)[C@H](O)[C@@H]3O[C@@H]3O[C@H](CO)[C@@H](O[C@@H]4O[C@H](CO[C@]5(C(=O)O)C[C@H](O)[C@@H](NC(C)=O)[C@H]([C@H](O)[C@H](O)CO)O5)[C@H](O)[C@H](O)[C@H]4O)[C@H](O)[C@H]3NC(C)=O)[C@@H](O)[C@H](O[C@H]3O[C@H](CO)[C@@H](O)[C@H](O)[C@@H]3O[C@@H]3O[C@H](CO)[C@@H](O[C@@H]4O[C@H](CO)[C@H](O)[C@H](O)[C@H]4O)[C@H](O)[C@H]3NC(C)=O)[C@@H]2O)[C@@H]1O (stereo partly shown) [A1F, monosialo-fucosylated biantennary N-glycan] | Kd ([2]; n = 1.85): 1.06 µM
91 | CC(=O)N[C@H]1[C@H](O[C@@H]([C@H](O)[C@H](CNc2ccccc2C(N)=O)NC(C)=O)[C@H](O)CO[C@@H]2O[C@@H](C)[C@@H](O)[C@@H](O)[C@@H]2O)O[C@H](CO)[C@@H](O[C@@H]2O[C@H](CO[C@H]3O[C@H](CO)[C@@H](O)[C@H](O)[C@@H]3O)[C@@H](O)[C@H](O[C@H]3O[C@H](CO)[C@@H](O)[C@H](O)[C@@H]3O)[C@@H]2O)[C@@H]1O [M3N2F, 2-aminobenzamide (2-AB)-labeled trimannosyl core N-glycan (paucimannose) with core α1-6 fucose] | 
